Measured values taken from patent US20230084927A1, “GLUCOSE UPTAKE INHIBITORS AND USES THEREOF” (METABOMED LTD., priority 2019, published 2023).

Assays:
[1] = system: SDH-KO-HRAS cells (SDHB-deficient); test: Cellular / differential toxicity assay (CellTiter-Glo, 3 days); type: cell-based, murine; conditions: Mus musculus, 72 h, toxicity, SDH-KO cells, 3 days, CellTiter-Glo; read-out: EC50 (uM) SDH-KO-HTAS-C17
Experimental: (§1) Identification of compounds that target specifically SDH-deficient cells was done by screening a library of small-molecule by using a differential toxicity screen with SDHB-proficient vs. SDHB-deficient cells (the […] cells were described in Cardaci 2015).
(§2) Cells Used for the Differential Assays: SDH-WT; SDH-KO-HRAS
(§3) Cell Culture Conditions: • Medium: DMEM-F12 medium+1 mM Glutamine+3% FBS • Plates: 96 well plate—Black, clear flat bottom • Incubation time: 3 days • Compound concentration: 10 point dilution starting from 10 uM to 0.0065 uM or a lower range when needed. • Viability assay at the end of incubation: Celltiter-Glo (CTG) from Promega.
(§4) Protocol: • Day 1: Plate cells in 96 well plate together with the appropriate concentration of compound.
(§5) Incubate for 3 days at 37° C. in 5% CO2 tissue culture incubator. • Day 4: Check viability of cells by adding CTG reagent and read luminescence in plate reader
(§6) SDH-WT and SDH-KO cells were grown in DMEM F12 supplemented with 1 mM Glutamine+3% FBS were treated with different concentrations of the indicated compounds in FIG. 11. Cell viability was determined 72 hours later by CellTiter Glue reagent (Promega), the luminescence was measured with ClarioStar reader (BMG) and the EC50s were calculated by Prism.
as §6, with “compounds.” for “compounds in FIG. 11.”
(§7) The cells were grown in DMEM F12 supplemented with 1 mM Glutamine+3% FBS were treated with different concentrations of the indicated compounds. Cell viability was determined 72 hours later by CellTiter Glue reagent (Promega), the luminescence was measured with ClarioStar reader (BMG) and the EC50s were calculated by Prism. Murine SDHB-WT/KO, HRAS transformed isogenic pair (FIG. 12A); UOK269, Human Tumor-derived SDHB-deficient RCC in their WT counterpart with re-expression of SDHB (FIG. 12B); and ACHN, RCC cells, and their SDHB-KO (SDHB CRISPRed out) isogenic cells (FIG. 12C).

[2] = system: SDH-WT cells; test: as above; type: cell-based, murine; conditions: Mus musculus, 72 h, toxicity, SDH-WT cells, 3 days, CellTiter-Glo; read-out: EC50 (uM) SDH-WT
Experimental: as §1, §2, §3, §4, §5, §6
as §6, with “compounds.” for “compounds in FIG. 11.”
as §7

COc1ccc(CCN(C)c2ncnc3c2sc2nc4c(cc23)COC(C)(C)C4)cc1F [Compound 100]
EC50 [1]: 3 to 10 µM | EC50 [2]: > 10 µM

CCOC1CCc2nc3sc4c(NCCc5ccc(OC)c(F)c5)ncnc4c3cc2C1 (centres unmarked) [Compound 101]
EC50 [1]: > 10 µM | EC50 [2]: > 10 µM

COc1cc(CCNc2ncnc3c2sc2nc4c(cc23)COC(C)(C)C4)cc(OC)c1 [Compound 102]
EC50 [1]: 3 to 10 µM | EC50 [2]: > 10 µM

COc1cccc(CCNc2ncnc3c2sc2nc4c(cc23)COC(C)(C)C4)c1OC [Compound 103]
EC50 [1]: > 10 µM | EC50 [2]: > 10 µM

COc1ccc(CCNc2ncnc3c2sc2nc(C=C(C)C)c(CCl)cc23)cc1F [Compound 104]
EC50 [1]: 1 to 3 µM | EC50 [2]: 3 to 10 µM

COc1ccc(C2CCN(c3ncnc4c3sc3nc5c(cc34)COC(C)(C)C5)C2)cc1F (centres unmarked) [Compound 105]
EC50 [1]: 3 to 10 µM | EC50 [2]: 3 to 10 µM

COc1ccc(CCNc2ncnc3c2sc2nc4c(cc23)CN(C)CC4)cc1F [Compound 106, N-(3-Fluoro-4-methoxyphenethyl)-9-methyl-7,8,9,10-tetrahydropyrimido[4′,5′:4,5]-thieno[2,3-b][1,6]naphthyridin-4-amine]
EC50 [1]: 3 to 10 µM | EC50 [2]: 3 to 10 µM

COc1ccc(CCNc2ncnc3c2sc2nc4c(cc23)CCC4)cc1F [Compound 108, N-(3-Fluoro-4-methoxyphenethyl)-8,9-dihydro-7H-cyclopenta[5′,6′]pyrido-[3′,2′:4,5]thieno[3,2-d]pyrimidin-4-amine]
EC50 [1]: > 10 µM | EC50 [2]: 1 to 3 µM

COc1ccc(CCNc2ncnc3c2sc2nc4c(cc23)CCCC4)cc1F [Compound 109, N-(3-Fluoro-4-methoxyphenethyl)-7,8,9,10-tetrahydropyrimido[4′,5′:4,5]-thieno[2,3-b]quinolin-4-amine]
EC50 [1]: > 10 µM | EC50 [2]: > 10 µM

COc1ccc(CCNc2ncnc3c2sc2ncccc23)cc1F [Compound 110]
EC50 [1]: 1 to 3 µM | EC50 [2]: > 10 µM

CC1(C)Cc2nc3sc4c(NCCC5CCCCO5)ncnc4c3cc2CO1 (centres unmarked) [Compound 112]
EC50 [1]: 3 to 10 µM | EC50 [2]: > 10 µM

CC1(C)Cc2nc3sc4c(NCCc5cccc(C(=O)O)c5)ncnc4c3cc2CO1 [Compound 113]
EC50 [1]: 3 to 10 µM | EC50 [2]: < 1 µM

CCCOc1ccc(CCNc2ncnc3c2sc2nc4c(cc23)COC(C)(C)C4)cc1OC [Compound 115]
EC50 [1]: 3 to 10 µM | EC50 [2]: 1 to 3 µM

CC1(C)Cc2nc3sc4c(NCCc5ccc6[nH]ccc6c5)ncnc4c3cc2CO1 [Compound 116]
EC50 [1]: 1 to 3 µM | EC50 [2]: 3 to 10 µM

COc1cccc(CCNc2ncnc3c2sc2nc4c(cc23)COC(C)(C)C4)c1 [Compound 117]
EC50 [1]: 3 to 10 µM | EC50 [2]: > 10 µM

CC1(C)Cc2nc3sc4c(NCCc5ccc(F)c(F)c5)ncnc4c3cc2CO1 [Compound 120]
EC50 [1]: > 10 µM | EC50 [2]: > 10 µM

COc1cc(CCNc2ncnc3c2sc2nc4c(cc23)COC(C)(C)C4)ccc1F [Compound 121]
EC50 [1]: 3 to 10 µM | EC50 [2]: > 10 µM

COc1ccc(CCNc2ncnc3c2sc2nc4c(cc23)COC(C)(C)C4)cc1F [Compound 122]
EC50 [1]: < 1 µM | EC50 [2]: > 10 µM

CC1(C)Cc2nc3sc4c(NCCc5cncnc5)ncnc4c3cc2CO1 [Compound 123]
EC50 [1]: > 10 µM | EC50 [2]: > 10 µM

CC1(C)Cc2nc3sc4c(NCCc5cccnc5)ncnc4c3cc2CO1 [Compound 124]
EC50 [1]: > 10 µM | EC50 [2]: > 10 µM

COc1ccc(CCNc2ncnc3c4c(sc23)=NC2CC(C)(C)OCC2C=4)c(OC)c1 (centres unmarked) [Compound 125]
EC50 [1]: 1 to 3 µM | EC50 [2]: > 10 µM

COc1ccc(CCNc2ncnc3c2sc2ncccc23)cc1OC [Compound 126]
EC50 [1]: 1 to 3 µM | EC50 [2]: 3 to 10 µM

CC1(C)Cc2nc3sc4c(NCCc5ccncc5)ncnc4c3cc2CO1 [Compound 127]
EC50 [1]: > 10 µM | EC50 [2]: > 10 µM

COc1ccccc1CCNc1ncnc2c1sc1nc3c(cc12)COC(C)(C)C3 [Compound 128]
EC50 [1]: 3 to 10 µM | EC50 [2]: 3 to 10 µM

COc1ccc(CCNc2ncnc3c2sc2nc4c(cc23)COC(C)(C)C4)cc1 [Compound 129]
EC50 [1]: < 1 µM | EC50 [2]: > 10 µM

COC(=O)c1ccc(CCNc2ncnc3c2sc2nc4c(cc23)COC(C)(C)C4)cc1 [Compound 130]
EC50 [1]: > 10 µM | EC50 [2]: > 10 µM

CC1(C)Cc2nc3sc4c(NCCc5ccc6c(c5)OCCO6)ncnc4c3cc2CO1 [Compound 131]
EC50 [1]: > 10 µM | EC50 [2]: > 10 µM

COc1ccc(Nc2ncnc3c2sc2nc4c(cc23)COC(C)(C)C4)cc1OC [Compound 132]
EC50 [1]: > 10 µM | EC50 [2]: > 10 µM

CC1(C)Cc2nc3sc4c(NCCc5ccccn5)ncnc4c3cc2CO1 [Compound 133]
EC50 [1]: 3 to 10 µM | EC50 [2]: > 10 µM

CC(C)Nc1ncnc2c1sc1nc3c(cc12)COC(C)(C)C3 [Compound 134]
EC50 [1]: > 10 µM | EC50 [2]: > 10 µM

CC1(C)Cc2nc3sc4c(NCc5ccccc5)ncnc4c3cc2CO1 [Compound 135]
EC50 [1]: > 10 µM | EC50 [2]: > 10 µM

CC1(C)Cc2nc3sc4c(N5CCNCC5)ncnc4c3cc2CO1 [Compound 136]
EC50 [1]: > 10 µM | EC50 [2]: > 10 µM

CC1(C)Cc2nc3sc4c(N5CCOCC5)ncnc4c3cc2CO1 [Compound 137]
EC50 [1]: > 10 µM | EC50 [2]: > 10 µM

CC1(C)Cc2nc3sc4c(N5CCCCC5)ncnc4c3cc2CO1 [Compound 138]
EC50 [1]: > 10 µM | EC50 [2]: > 10 µM

CC1(C)Cc2nc3sc4c(NCCc5ccc(O)c(F)c5)ncnc4c3cc2CO1 [Compound 140]
EC50 [1]: 1 to 3 µM | EC50 [2]: 3 to 10 µM

CC1(C)Cc2nc3sc4c(NCCc5ccc(NC(N)=O)cc5)ncnc4c3cc2CO1 [Compound 141]
EC50 [1]: < 1 µM | EC50 [2]: > 10 µM

CNC(=O)c1ccc(CCNc2ncnc3c2sc2nc4c(cc23)COC(C)(C)C4)cc1 [Compound 142]
EC50 [1]: < 1 µM | EC50 [2]: 3 to 10 µM

CC1(C)Cc2nc3sc4c(NCCc5ccc(OC(N)=O)cc5)ncnc4c3cc2CO1 [Compound 143]
EC50 [1]: < 1 µM | EC50 [2]: > 10 µM

CC1(C)Cc2nc3sc4c(NCCc5ccc(C(N)=O)cc5)ncnc4c3cc2CO1 [Compound 144]
EC50 [1]: < 1 µM | EC50 [2]: > 10 µM

CN(c1ccc(CCNc2ncnc3c2sc2nc4c(cc23)COC(C)(C)C4)cc1)S(C)(=O)=O [Compound 146]
EC50 [1]: 3 to 10 µM | EC50 [2]: > 10 µM

CC1(C)Cc2nc3sc4c(NCCc5ccc(-c6ncco6)cc5)ncnc4c3cc2CO1 [Compound 147]
EC50 [1]: < 1 µM | EC50 [2]: 3 to 10 µM

CC1(C)Cc2nc3sc4c(NCCc5ccc(-c6cncs6)cc5)ncnc4c3cc2CO1 [Compound 148]
EC50 [1]: < 1 µM | EC50 [2]: > 10 µM

CC1(C)Cc2nc3sc4c(NCCc5ccc(-c6cnco6)cc5)ncnc4c3cc2CO1 [Compound 149]
EC50 [1]: > 10 µM | EC50 [2]: > 10 µM

CN(C)C(=O)c1ccc(CCNc2ncnc3c2sc2nc4c(cc23)COC(C)(C)C4)cc1 [Compound 150]
EC50 [1]: 1 to 3 µM | EC50 [2]: > 10 µM

CC1(C)Cc2nc3sc4c(NCCc5ccc(N)cc5)ncnc4c3cc2CO1 [Compound 151]
EC50 [1]: < 1 µM | EC50 [2]: 3 to 10 µM

CC1(C)Cc2nc3sc4c(NCCc5ccc(NS(C)(=O)=O)cc5)ncnc4c3cc2CO1 [Compound 152]
EC50 [1]: 3 to 10 µM | EC50 [2]: 3 to 10 µM

COc1ccc(CCOc2ncnc3c2sc2nc4c(cc23)COC(C)(C)C4)cc1F [Compound 153]
EC50 [1]: > 10 µM | EC50 [2]: > 10 µM

CC1(C)Cc2nc3sc4c(NCCc5ccc(O)cc5)ncnc4c3cc2CO1 [Compound 154]
EC50 [1]: < 1 µM | EC50 [2]: 3 to 10 µM

CC1(C)Cc2nc3sc4c(NCCc5ccc(N6CCCC6=O)cc5)ncnc4c3cc2CO1 [Compound 156]
EC50 [1]: 1 to 3 µM | EC50 [2]: > 10 µM

CC1(C)Cc2nc3sc4c(NCCc5ccc(OS(C)(=O)=O)cc5)ncnc4c3cc2CO1 [Compound 157]
EC50 [1]: > 10 µM | EC50 [2]: > 10 µM

CC(=O)N(C)c1ccc(CCNc2ncnc3c2sc2nc4c(cc23)COC(C)(C)C4)cc1 [Compound 158]
EC50 [1]: < 1 µM | EC50 [2]: > 10 µM

CC1(C)Cc2nc3sc4c(NCCc5ccc(C(=O)O)cc5)ncnc4c3cc2CO1 [Compound 159]
EC50 [1]: > 10 µM | EC50 [2]: > 10 µM

COc1ccc(CCN(C(C)=O)c2ncnc3c2sc2nc4c(cc23)COC(C)(C)C4)cc1F [Compound 160]
EC50 [1]: > 10 µM | EC50 [2]: > 10 µM

COc1ccc(CCNc2ncnc3c2sc2nc4c(cc23)COC(C)(C)C4)cc1C(F)(F)F [Compound 161]
EC50 [1]: 3 to 10 µM | EC50 [2]: 3 to 10 µM

COc1cccc(OC)c1CCNc1ncnc2c1sc1nc3c(cc12)COC(C)(C)C3 [Compound 162]
EC50 [1]: < 1 µM | EC50 [2]: < 1 µM
